Marks after values point to notes of the source that are not given here.
Columns and labels:
Rainbow trout = experiment: Toxicity test LC50 on fish fauna, Rainbow trout; format: in vivo
From the text: (§8) The table below lists the results of the toxicity tests performed on fish fauna and on some phyto- and zooplankton species considered among the possible targets of the claimed method.

[1] = Biodegradability OECD 301 A (92/69/EEC C4-A); format: physicochemical
From the text: The degradability of a substance is normally a factor that is impossible to predict on a structural basis. […] On the basis of the available data related to the compounds that are chemically more similar to the derivatives of menadione described here, one could have expected a degradability comprised between the 0% (percentage calculated on the initial mass of product expressed as mg/l) of menadione (2-methyl-1,4-naphthalenedione) and the 17% (assessed after 28 days) of menadione sodium bisulfite (where the calculation was performed by using the OECD301 A guidelines annexed to EEC directive 92/69/EEC C4-A).
Finally, biodegradability according to the 92/69/EEC C4-A regulation was also assessed.

[2] = Photodegradability in sunlight and UV light; format: physicochemical; details: 10-ppm solution in drinking water (pH 6.5-7.5)
Description: In a fully similar manner, the same behaviour is confirmed if one assesses the photodegradability in sunlight and UV light (the radiation test was performed on a 10-ppm solution in drinking water (pH 6.5-7.5)

Eurytemora Affinis = experiment: Toxicity test LC50 on Eurytemora Affinis; details: in vivo
From the text: as §8

Isochris Galbana = experiment: Toxicity test LC50 on Isochris Galbana; format: cell-based
From the text: as §8

Eimeria tenella = experiment: Coccid infection in chicken, Eimeria tenella; format: in vivo; details: chickens (Ross males), 250 ppm of MPB in feed, inoculated orally with 50,000 oocysts; fecal count 16 hours before killing; n=6
Description: (§1) The effect of a preparation comprising menadione dimethylpirymidinol bisulfite (MPB) on coccid infection in chicken was assessed.
(§2) Composition of the preparation (per Kg of final preparation):
(§3) MPB coated with vegetable hydrogenated fatty acids (1:1 inclusion ratio) 500 g,
(§4) This preparation was added in the amount of 1 Kg per ton of feed, so that the final concentration of MPB was equal to 250 ppm of MPB (equivalent to approximately 109 ppm of menadione). Since a chicken eats on average 70-80 grams of feed per day, the daily dose of MPB was equal to approximately 17-20 mg/animal per day.
(§5) The chickens (Ross males) were raised in individual cages for four weeks with a commercial feed in comparison with the same feed integrated with said preparation at the dose of 1 Kg/ton.
(§6) At the end of the third week, the chickens were weighed and divided into uniform weight groups within each treatment and were orally inoculated (1 ml) respectively with 50,000 oocysts of Eimeria tenella or 100,000 oocysts of E. acervulina. The fecal count of the oocysts was performed (method described in Hodgson J. N. 1970, Exp. Parasitol. 28:99-102) 16 hours before killing the animals.
(§7) The coccidiostatic effect is confirmed by the score of the lesions six days after inoculation (method described by Johson J. et Al. 1970, Exp. Parasitol. 28:30-36).

Eimeria acervulina = experiment: Coccid infection in chicken, Eimeria acervulina; format: in vivo; details: chickens (Ross males), 250 ppm of MPB in feed, inoculated orally with 100,000 oocysts; fecal count 16 hours before killing; n=6
Description: as §1, §2, §3, §4, §5, §6, §7

[3] = tested on: Dreissena Polimorfa Larvae; experiment: Toxicity test LC50 on Dreissena Polimorfa larvae; details: in vivo
From the text: as §8

Artemia Salina = experiment: Toxicity test LC50 on Artemia Salina; details: in vivo
From the text: as §8

[4] = Hydrolysis test performed in darkness; format: physicochemical

CC1(S(=O)(=O)O)CC(=O)c2ccccc2C1=O.Cc1cc(C)[nH]c(=O)n1 (stereo not drawn) [MPB, menadione dimethylpirymidinol bisulfite]
LC50 Rainbow trout (assessed on 96 h) (Rainbow trout): 0.4 ppm
degradability compared with that of MSB ([1]; 7 days after the beginning of the test): as much as eight times higher
% biodegr. OECD 301 A ([1]; after 7 days): 37%
% biodegr. OECD 301 A ([1]; after 14 days): 37%
% biodegr. OECD 301 A ([1]; after 28 days): 40%
Light exp. Total Degr. [2]: 48 h
Light exp. ½ life [2]: 10 h
LC50 Eurytemora Affinis (Eurytemora Affinis): 5 ppm
LC50 Isochris Galbana (Isochris Galbana): 0.5 ppm
Excretion of oocysts, Eimeria tenella (Eimeria tenella): 0.44 ± 0.05^a ×10^8
Excretion of oocysts, Eimeria acervulina (Eimeria acervulina): 5.9 ± 0.8^a ×10^8
LC50 Dreissena Polimorfa Larvae [3]: 1 ppm
LC50 Artemia Salina (Artemia Salina): 5 ppm
½ LIFE, hydrolysis ([4]; PH 6.8, in darkness): 48 h
½ LIFE, hydrolysis ([4]; PH 9, in darkness): <3 h

Source: US20040244713A1, “Method for treating animals or masses of water with compositions comprising quinone compounds” (priority 2003, published 2004)
